Like-named read-outs stand apart in the source and are kept apart here.
Assays:
Kir4.1 = target: T1, Kir4.1 (Homo sapiens, UniProt P78508); assay: Whole-cell patch clamp, Kir4.1 currents in transfected CHO-K1 cells; format: cell-based; settings: for inhibition at 1 µM: CHO-K1, 1 μM; for inhibition at 10 µM: CHO-K1, 10 μM
T1 construct: host or cells: CHO-K1
T1 sequence (P78508 1-379): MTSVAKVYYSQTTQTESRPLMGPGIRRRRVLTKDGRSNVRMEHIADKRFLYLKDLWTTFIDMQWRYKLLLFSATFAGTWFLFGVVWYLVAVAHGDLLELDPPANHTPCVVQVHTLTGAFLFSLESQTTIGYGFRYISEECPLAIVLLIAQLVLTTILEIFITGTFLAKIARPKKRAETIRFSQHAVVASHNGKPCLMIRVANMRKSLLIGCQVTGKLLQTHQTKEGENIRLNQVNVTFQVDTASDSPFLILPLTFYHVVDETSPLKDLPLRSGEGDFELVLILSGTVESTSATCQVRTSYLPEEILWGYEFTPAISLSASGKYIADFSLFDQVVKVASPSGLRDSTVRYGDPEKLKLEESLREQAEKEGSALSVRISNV
Description: Plasmids encoding WT human potassium channels Kir1.1, Kir2.1, Kir2.2, Kir4.1, and Kir4.2 were obtained from the Beijing Genomics Institute. All point mutations were constructed using the QuickChange II Site‐Directed Mutagenesis Kit (Stratagene) and subsequently verified by sequencing.
CHO‐K1 cells were maintained in DMEM/F12 growth medium containing 10% fetal bovine serum. Plasmids encoding the target genes (3600 ng) and enhanced green fluorescent protein (400 ng) were cotransfected into cells using Lipofectamine 2000 (Invitrogen) in accordance with the manufacturer's instructions. Cells were seeded onto poly‐d‐lysine (PDL)‐coated glass coverslips 1 h prior to electrophysiological recordings. All cells were cultured under standard conditions of 5% CO2 at 37 °C.
Whole‐cell patch‐clamp recordings were obtained either in transiently transfected CHO‐K1 cells or in primary cultured astrocytes at room temperature using standard patch‐clamp techniques with an Axopatch‐700B amplifier (Axon Instruments). The signals were filtered at 2 kHz and sampled at 20 kHz using the Digidata 1440A interface (Axon Instruments). The resistance of borosilicate glass pipettes was typically 2–4 MΩ when filled with the internal solution. Drug application was facilitated using a BPS perfusion system (ALA Scientific Instruments). Macroscopic currents generated by expressed potassium channels were recorded under the voltage‐clamp conditions with an internal pipette solution composed of (in mM): 140 KCl, 5 NaCl, 1 CaCl2, 1 MgCl2, 10 HEPES, and 10 EGTA, pH 7.2 adjusted with KOH. The external solution contained (in mM): 140 NaCl, 5 KCl, 2 CaCl2, 1 MgCl2, 10 glucose, and 10 HEPES, pH 7.4 adjusted with NaOH. Currents were elicited with a hyperpolarized voltage at −120 mV from the holding potential of −80 mV, followed by a ramp voltage depolarizing to +50 mV. Astrocytic resting membrane potentials were recorded under current‐clamp conditions (I = 0 pA) using standard internal and external solutions, determined immediately after achieving whole‐cell mode.

[1] = tested on: MDA-MB-468 breast cancer cells; assay: Cytotoxicity test (CCK-8); format: cell-based; settings: Homo sapiens, MDA-MB-468, MDA-MB-468 breast cancer cells; read-out: IC50 ± SD (μM) for MDA-MB-468 Inhibition
Description: Cytotoxicity of all the tested compounds was determined using the cell counting kit‐8 (CCK‐8) assay kit (Beyotime, Shanghai, China). Briefly, MDA‐MB‐468 was cultured in L15 medium and plated in 96‐well plates at a density of 12,000 cells per well for 24 h at 37 °C in a 5% CO2 incubator. The tested compounds were dissolved in DMSO and diluted with culture medium (DMSO final concentration < 0.4%). Then the cells were treated with compounds (0.41, 1.23, 3.70, 11.11, 33.33, 100.00 µM) for 48 h. After treatments, removal of the supernatant liquor, 100 µL of new media diluted CCK‐8 solution (10% CCK‐8) was added into each well and incubated at 37 °C for 2 h. The absorbance of the mixture was directly measured at 450 nm. The results are presented as a percentage of the control.

[2] = CHO-K1, 0.5 μM, +50 mV, read-out: Kir4.1 Inhibition ± SD (%) at 0.5 μM, +50 mV
[3] = CHO-K1, 0.5 μM, -120 mV, read-out: Kir4.1 Inhibition ± SD (%) at 0.5 μM, -120 mV
[4] = +50 mV, read-out: Kir4.1 Inhibition ± SD (%) at 1 μM, +50 mV
[5] = -120 mV, read-out: Kir4.1 Inhibition ± SD (%) at 1 μM, -120 mV
[6] = +50 mV, read-out: Kir4.1 Inhibition ± SD (%) at 10 μM, +50 mV
[7] = -120 mV, read-out: Kir4.1 Inhibition ± SD (%) at 10 μM, -120 mV

Question: For `c1ccc2c(c1)oc1ccc(Nc3ccnc(NCCCN4CCCCC4)n3)cc12` [JX3244, N^4-(dibenzo[b,d]furan-2-yl)-N^2-(3-(piperidin-1-yl)propyl)pyrimidine-2,4-diamine], which inhibition at 0.5 µM (Kir4.1; [2]) is on record?
Answer: 74.9 ± 2.12%

Question: And the inhibition at 0.5 µM (Kir4.1; [3])?
Answer: 63 ± 5.95%

Question: What about the inhibition at 0.5 µM (Kir4.1; CHO-K1, 0.5 µM, read-out: Kir4.1 inhibition at 0.5 µM) of the same molecule?
Answer: > 60%

Question: What about the inhibition at 1 µM (Kir4.1; [4]) of the same molecule?
Answer: 85.4 ± 3.98%

Question: And the inhibition at 1 µM (Kir4.1; [5])?
Answer: 74.5 ± 6.63%

Question: What about the inhibition at 10 µM (Kir4.1; [6]) of the same molecule?
Answer: 98.66 ± 0.25%

Question: And the inhibition at 10 µM (Kir4.1; [7])?
Answer: 97 ± 1.09%

Question: And the IC50 [1]?
Answer: 6.86 ± 0.23 µM

Question: `O=C1c2ccccc2-c2cc(Nc3ccnc(NCCCN4CCOCC4)n3)ccc21` [JX3211, 3-((2-((3-morpholinopropyl)amino)pyrimidin-4-yl)amino)-9H-fluoren-9-one] was tested. Which inhibition at 1 µM (Kir4.1; [4]) did it give?
Answer: 28.8 ± 5.45%

Question: What about the inhibition at 1 µM (Kir4.1; [5]) of the same molecule?
Answer: 21.3 ± 8.61%

Question: What about the inhibition at 10 µM (Kir4.1; [6]) of the same molecule?
Answer: 89.2 ± 1.72%

Question: And the inhibition at 10 µM (Kir4.1; [7])?
Answer: 81 ± 2.36%

Question: What about the IC50 [1] of the same molecule?
Answer: 29.8 ± 0.5 µM

Question: `CC(CNc1nccc(Nc2ccc3oc4ccccc4c3c2)n1)CN1CCOCC1` (centres unmarked) [JX3233, N^4-(dibenzo[b,d]furan-2-yl)-N^2-(2-methyl-3-morpholinopropyl)pyrimidine-2,4-diamine] was tested. Which inhibition at 1 µM (Kir4.1; [4]) did it give?
Answer: 4.34 ± 8.43%

Question: What about the inhibition at 1 µM (Kir4.1; [5]) of the same molecule?
Answer: 2.58 ± 3.95%

Question: What about the inhibition at 10 µM (Kir4.1; [6]) of the same molecule?
Answer: 92.2 ± 1.15%

Question: What about the inhibition at 10 µM (Kir4.1; [7]) of the same molecule?
Answer: 97.2 ± 1.69%

Question: And the IC50 [1]?
Answer: 10.44 ± 0.01 µM

Question: Which inhibition at 1 µM (Kir4.1; [4]) does the source give for `OC(CNc1nccc(Nc2ccc3oc4ccccc4c3c2)n1)CN1CCOCC1` (centres unmarked) [JX3234, 1-((4-(dibenzo[b,d]furan-2-ylamino)pyrimidin-2-yl)amino)-3-morpholinopropan-2-ol] here?
Answer: 11.2 ± 5.26%

Question: What about the inhibition at 1 µM (Kir4.1; [5]) of the same molecule?
Answer: 5.91 ± 6.31%

Question: And the inhibition at 10 µM (Kir4.1; [6])?
Answer: 94.83 ± 0.75%

Question: What about the inhibition at 10 µM (Kir4.1; [7]) of the same molecule?
Answer: 88.4 ± 2.42%

Question: And the IC50 [1]?
Answer: 17.1 ± 0.83 µM

Question: With `c1ccc2c(c1)ccc1[nH]c3ccc(Nc4ccnc(NCCCN5CCOCC5)n4)cc3c12` [JX3215, N^4-(7H-benzo[c]carbazol-10-yl)-N^2-(3-morpholinopropyl)pyrimidine-2,4-diamine] as the molecule, how does the inhibition at 0.5 µM (Kir4.1; [2]) read?
Answer: 39.5 ± 5.16%

Question: What about the inhibition at 0.5 µM (Kir4.1; [3]) of the same molecule?
Answer: 30.3 ± 5.33%

Question: And the inhibition at 1 µM (Kir4.1; [4])?
Answer: 79.3 ± 3.86%

Question: What about the inhibition at 1 µM (Kir4.1; [5]) of the same molecule?
Answer: 71 ± 2.19%

Question: And the inhibition at 10 µM (Kir4.1; [6])?
Answer: 95.83 ± 0.42%

Question: And the inhibition at 10 µM (Kir4.1; [7])?
Answer: 89.8 ± 1.62%

Question: And the IC50 [1]?
Answer: 6.72 ± 0.28 µM

Question: Which results are given for `c1ccc2c(c1)oc1ccc(Nc3ccnc(NCCCN4CCOCC4)c3)cc12` [JX3219, N^4-(dibenzo[b,d]furan-2-yl)-N^2-(3-morpholinopropyl)pyridine-2,4-diamine]?
Answer: inhibition at 0.5 µM (Kir4.1; [2]): 49.6 ± 6.47%; inhibition at 0.5 µM (Kir4.1; [3]): 40.2 ± 4.35%; inhibition at 1 µM (Kir4.1; [4]): 86.1 ± 3.36%; inhibition at 1 µM (Kir4.1; [5]): 78.7 ± 8.16%; inhibition at 10 µM (Kir4.1; [6]): 97.44 ± 0.6%; inhibition at 10 µM (Kir4.1; [7]): 92.6 ± 5.66%; IC50 [1]: 8.74 ± 0.36 µM

Question: With `c1ccc2c(c1)oc1ccc(N3CCC4(CCN(CCCN5CCOCC5)CC4)CC3)cc12` [JX3230, 4-(3-(9-(dibenzo[b,d]furan-2-yl)-3,9-diazaspiro[5.5]undecan-3-yl)propyl)morpholine] as the molecule, how does the inhibition at 10 µM (Kir4.1; [6]) read?
Answer: 63.3 ± 6.48%

Question: And the inhibition at 10 µM (Kir4.1; [7])?
Answer: 15.6 ± 0.73%

Question: And the IC50 [1]?
Answer: > 50 µM

Question: What does the source list for `Cc1cnc(NCCCN2CCOCC2)nc1Nc1ccc2oc3ccccc3c2c1` [JX3216, N^4-(dibenzo[b,d]furan-2-yl)-5-methyl-N^2-(3-morpholinopropyl)pyrimidine-2,4-diamine]?
Answer: inhibition at 1 µM (Kir4.1; [4]): 16.8 ± 8.93%; inhibition at 1 µM (Kir4.1; [5]): 9.55 ± 3.62%; inhibition at 10 µM (Kir4.1; [6]): 97.02 ± 0.67%; inhibition at 10 µM (Kir4.1; [7]): 92 ± 1.98%; IC50 [1]: 17.9 ± 0.65 µM

Question: Which results are given for `c1ccc2c(c1)oc1ccc(Nc3cnc(NCCCN4CCOCC4)cn3)cc12` [JX3225, N^2-(dibenzo[b,d]furan-2-yl)-N^5-(3-morpholinopropyl)pyrazine-2,5-diamine]?
Answer: inhibition at 1 µM (Kir4.1; [4]): 3.73 ± 5.09%; inhibition at 1 µM (Kir4.1; [5]): 8.36 ± 3.94%; inhibition at 10 µM (Kir4.1; [6]): 96.9 ± 1.28%; inhibition at 10 µM (Kir4.1; [7]): 94.3 ± 2.6%; IC50 [1]: 31.6 ± 5.27 µM

Question: What does the source list for `O=c1c2ccccc2[nH]c2ccc(Nc3ccnc(NCCCN4CCOCC4)n3)cc12` [JX3208, 2-((2-((3-morpholinopropyl)amino)pyrimidin-4-yl)amino)acridin-9(10H)-one]?
Answer: inhibition at 10 µM (Kir4.1; [6]): 1.43 ± 3.1%; inhibition at 10 µM (Kir4.1; [7]): 2.21 ± 9.84%; IC50 [1]: 16.8 ± 0.51 µM

From PMC12903969, “Discovery of a Novel and Potent Kir4.1 Inhibitor as a Safe and Rapid‐Onset Antidepressant Agent in Mice” (Advanced Science, 2025)
